Calls of active or inactive are those of the source. The rule behind the calls is not given here. Bridge positions count the residues as written; N and C are the ends. Square brackets hold non-standard residues; d marks the D form. Peptide text beside a SMILES is read from it. S5 = C=CCCC[C@](C)(N)C(=O)O
Key:
[1] = Toxicity in male BALB/c mouse assessed as change in body weight at 20 mg/kg,iv administration measured upto 14 days; assay type: organism-based; settings: in vivo, 336 h, time < 14 day
[2] = system: Human immunodeficiency virus 1; assay: Antiviral activity against HIV-1 IIIB assessed as reduction in viral growth by measuring p24 antigen level incubated for 2 hrs by ELISA; assay type: functional, organism-based; settings: Human immunodeficiency virus 1, IIIB
[3] = system: Human immunodeficiency virus 1; assay: Antiviral activity against T20-resistant HIV-1 NL4-3 harboring […] N38A and N42T mutant infected in human MT2 cells assessed as inhibition of viral growth pretreated with virus for 30 mins followed by infection with cells incubated for 72 hrs by ELISA; assay type: functional, organism-based
[4] = Toxicity in Sprague-Dawley rat assessed as change in serum creatinine level at 50 mg/kg,iv administration measured upto 6 days; assay type: organism-based; settings: in vivo, 144 h, time < 6 day
[5] = Toxicity in Sprague-Dawley rat assessed as change in body weight at 50 mg/kg,iv administration measured upto 14 days; assay type: organism-based; settings: in vivo, 336 h, time < 14 day
[6] = Toxicity in BALB/c mouse assessed as histopathological change in liver at 100 mg/kg,iv administration measured after 14 days by hematoxylin and eosin staining based assay; assay type: organism-based; settings: in vivo, 336 h, time 14 day
[7] = Stability in human liver microsomes in presence of NADPH by LC-MS/MS analysis; assay type: ADME, Microsome
[8] = AUClast in Sprague-Dawley rat at 1 mg/kg,iv administration measured upto 9 days by LC-MS/MS analysis; assay type: ADME, organism-based; settings: in vivo, time < 9 day
[9] = Half life in Sprague-Dawley rat plasma at 50 mg/kg,po administrated for 15 hrs by LC-MS/MS analysis; assay type: ADME, organism-based
[10] = Stability in rat liver assessed as parent compound remaining at 1 ug/ml incubated for 1 hr by LC-MS/MS analysis; assay type: ADME, tissue-based; settings: at 1 µg/mL, read-out: Stability
[11] = Biodistribution in Sprague-Dawley rat brain assessed as fold increase in AUC at 1 mg/kg,iv administration measured after 12 days by LC-MS/MS analysis; assay type: ADME, organism-based; settings: in vivo, 288 h, time 12 day
[12] = system: Human immunodeficiency virus 1; assay: Binding affinity to cytoplasmic LLP1 domain of HIV-1 GP41 assessed as binding constant by isothermal titration calorimetry
chymotrypsin = chymotrypsin (Homo sapiens, UniProt P17538+P40313+Q6GPI1+Q99895); assay: Proteolytic stability assessed as Chymotrypsin (unknown origin) mediated compound degradation by measuring parent compound remaining incubated for 2 hrs by LC-MS/MS analysis; assay type: ADME, protein assay; settings: read-out: Stability
[13] = Biodistribution in Sprague-Dawley rat lymph node assessed as fold increase in AUC at 1 mg/kg,iv administration measured after 12 days by LC-MS/MS analysis; assay type: ADME, organism-based; settings: in vivo, 288 h, time 12 day
[14] = Drug concentration in Sprague-Dawley rat plasma at 50 mg/kg,po administrated for 15 hrs by LC-MS/MS analysis; assay type: ADME, organism-based; settings: in vivo
[15] = Proteolytic stability assessed as Pepsin (unknown origin) mediated compound degradation incubated for 4 hrs by LC-MS/MS analysis; assay type: ADME; settings: human
[16] = Stability in rat plasma assessed as parent compound remaining at 1 ug/ml incubated for 1 hr by LC-MS/MS analysis; assay type: ADME, cell-free; settings: at 1 µg/mL, read-out: Stability
SARS-CoV-2 = assay: Antiviral activity against SARS-CoV-2 infected in human Caco-2 cells assessed as inhibition of viral growth at 2000 nM; assay type: functional, organism-based; settings: Severe acute respiratory syndrome coronavirus 2
[17] = Cytotoxicity against human MT2 cells; assay type: toxicity, cell-based
[18] = system: Human immunodeficiency virus 1; assay: Binding affinity to cytoplasmic LLP1 domain of HIV-1 GP41 assessed as change in enthalpy by isothermal titration calorimetry
[19] = Toxicity in Sprague-Dawley rat assessed as inflammatory cell infiltration in kidney at 50 mg/kg,iv administration measured after 14 days by hematoxylin and eosin staining based assay; assay type: organism-based; settings: in vivo, 336 h, time 14 day
[20] = system: Human immunodeficiency virus 1; assay: Binding affinity to cytoplasmic LLP1 domain of HIV-1 GP41 assessed as change in entropy by isothermal titration calorimetry
[21] = Total clearance in Sprague-Dawley rat at 10 mg/kg,iv administration measured upto 9 days by LC-MS/MS analysis; assay type: ADME, organism-based; settings: in vivo, 216 h, time < 9 day
[22] = Toxicity in male BALB/c mouse assessed as change in body weight at 100 mg/kg,iv administration measured upto 14 days; assay type: organism-based; settings: in vivo, 336 h, time < 14 day
[23] = system: Human immunodeficiency virus 1; assay: Antiviral activity against HIV-1 IIIB infected in human MT2 cells assessed as inhibition of viral growth at 5 uM preincubation of compound with 20% HSA; assay type: functional, organism-based
[24] = Biodistribution in Sprague-Dawley rat intestine assessed as fold increase in AUC at 1 mg/kg,iv administration measured after 12 days by LC-MS/MS analysis; assay type: ADME, organism-based; settings: in vivo, 288 h, time 12 day
[25] = MRT in Sprague-Dawley rat at 10 mg/kg,iv administration measured upto 9 days by LC-MS/MS analysis; assay type: ADME, organism-based; settings: in vivo, 216 h, time < 9 day
[26] = Toxicity in Sprague-Dawley rat assessed as necrosis in liver at 50 mg/kg,iv administration measured after 14 days by hematoxylin and eosin staining based assay; assay type: organism-based; settings: in vivo, 336 h, time 14 day
[27] = Toxicity in Sprague-Dawley rat assessed as necrosis in kidney at 50 mg/kg,iv administration measured after 14 days by hematoxylin and eosin staining based assay; assay type: organism-based; settings: in vivo, 336 h, time 14 day
[28] = Total clearance in Sprague-Dawley rat at 1 mg/kg,iv administration measured upto 9 days by LC-MS/MS analysis; assay type: ADME, organism-based; settings: in vivo, time < 9 day
[29] = MRT in Sprague-Dawley rat at 1 mg/kg,iv administration measured upto 9 days by LC-MS/MS analysis; assay type: ADME, organism-based; settings: in vivo, time < 9 day
[30] = system: Human immunodeficiency virus 1; assay: Antiviral activity against HIV-1 clinical isolate X4-89BZ167 assessed as reduction in viral growth by measuring p24 antigen level incubated for 2 hrs by ELISA; assay type: functional, organism-based; settings: Human immunodeficiency virus 1, clinical isolate X4-89BZ167, 2 h
[31] = Volume of distribution at steady state in Sprague-Dawley rat at 1 mg/kg,iv administration measured upto 9 days by LC-MS/MS analysis; assay type: ADME, organism-based; settings: in vivo, time < 9 day, read-out: Vdss
[32] = Toxicity in BALB/c mouse assessed as change in serum creatinine level at 100 mg/kg,iv administration measured upto 6 days; assay type: organism-based; settings: in vivo, 144 h, time < 6 day
[33] = Toxicity in Sprague-Dawley rat assessed as inflammatory cell infiltration in liver at 50 mg/kg,iv administration measured after 14 days by hematoxylin and eosin staining based assay; assay type: organism-based; settings: in vivo, 336 h, time 14 day
proteinase K = assay: Proteolytic stability assessed as proteinase K (unknown origin) mediated compound degradation by measuring parent compound remaining incubated for 4 hrs by LC-MS/MS analysis; assay type: ADME; settings: human, read-out: Stability
[34] = Toxicity in BALB/c mouse assessed as change in serum ALT level at 100 mg/kg,iv administration measured upto 6 days; assay type: organism-based; settings: in vivo, 144 h, time < 6 day
[35] = Elimination half life in Sprague-Dawley rat at 1 mg/kg,iv administration measured upto 9 days by LC-MS/MS analysis; assay type: ADME, organism-based; settings: in vivo, time < 9 day, read-out: beta t1/2 (converted)
[36] = system: Human immunodeficiency virus 1; assay: Antiviral activity against HIV-1 IIIB infected in human MT2 cells assessed as inhibition of viral growth at 5 uM preincubation of compound with 10% HSA; assay type: functional, organism-based
[37] = Toxicity in Sprague-Dawley rat assessed as histopathological change in liver at 50 mg/kg,iv administration measured after 14 days by hematoxylin and eosin staining based assay; assay type: organism-based; settings: in vivo, 336 h, time 14 day

CC(=O)NCC(=O)N[C@@]1(C)CCC/C=C\CCC[C@@](C)(C(=O)N[C@@H](Cc2ccc(O)cc2)C(=O)N[C@@H](CC(C)C)C(=O)N[C@@]2(C)CCC/C=C\CCC[C@@](C)(C(=O)N[C@@H](Cc3ccc(O)cc3)C(=O)N[C@@H](Cc3c[nH]c4ccccc34)C(N)=O)NC(=O)[C@H](CC(C)C)NC(=O)[C@H](CC(C)C)NC(=O)[C@H](CC(N)=O)NC2=O)NC(=O)[C@H](CC(C)C)NC(=O)[C@H](C)NC(=O)[C@H](CCC(=O)O)NC1=O (Ac-G[S5]EAL[S5]YL[S5]NLL[S5]YW-NH2; staple (Z) 2-6, 9-13)
Activity [1]: Non-Toxic | EC50 [2]: 8.21 nM | IC50 [3]: 12.2 nM | Activity [4]: Non-Toxic | Activity [5]: Non-Toxic | Activity [6]: Non-Toxic | Stability [7]: Stable | AUC(0-t) at 216 h [8]: 40400 ng·h/mL | half-life [9]: 41.2 h | remaining at 1 h, 1 ug/ml [10]: 100% | fold change (FC) [11]: 5 | K [12]: 2.77 10^5/M | remaining at 2 h (chymotrypsin): > 56.8% | fold change (FC) [13]: 10 | Drug uptake [14]: Active | Stability [15]: Stable | remaining at 1 h, 1 ug/ml [16]: > 99% | Activity (SARS-CoV-2): inactive | CC50 [17]: 5070 nM | deltaH [18]: -2.84 10^4cal/mol | Activity [19]: Non-Toxic | deltaS [20]: -70.2 cal/mol/deg | CL [21]: 0.2 mL/min/kg | Activity [22]: Non-Toxic | Activity [23]: Active | fold change (FC) [24]: 10 | MRT [25]: 89.1 h | Activity [26]: Non-Toxic | Activity [27]: Non-Toxic | clearance [28]: 0.31 mL/min/kg | MRT [29]: 71.1 h | EC50 [30]: 44.4 nM | Vd [31]: 2.32 L/kg | Activity [32]: Non-Toxic | Activity [33]: Non-Toxic | remaining at 4 h (proteinase K): 89.6% | Activity [34]: Non-Toxic | half-life [35]: > 70 h | Activity [36]: Active | Activity [37]: Non-Toxic
